Source: patent US10407467B2, “Polymyxin derivatives and their use in combination therapy together with different antibiotics” (priority 2013, dated 2019)
Bridge positions count the residues as written; N and C are the ends. Square brackets hold non-standard residues; d marks the D form. Peptide text beside a SMILES is read from it. ξ: configuration not given here. Thr(3ξ) = CC(O)[C@H](N)C(=O)O; Dab = NCC[C@H](N)C(=O)O; Ava = NCCCCC(=O)O

Columns and labels:
Format in all cases: cell-based
Klebsiella pneumoniae [1] = assay: MIC, sole activity (no second agent)
Summary of the method: (§1)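 First, isolated colonies grown 18-24 hours on Mueller-Hinton agar were suspended to 0.5 McFarland; next, up to four strains per pathogen were tested in duplicate in cation-adjusted MHB; finally, the lower concordant value or modal repeat value was reported against Polymyxin B.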

Acinetobacter baumannii = assay: MIC, sole activity (no second agent); conditions: for MIC A. baumannii ATCC BAA-747 / MIC A. baumannii NCTC 13424: Table 6A, no second agent, different supplier of Cation-adjusted MHB
Summary of the method: as §1

Escherichia coli = assay: MIC, sole activity (no second agent)
Summary of the method: as §1

Pseudomonas aeruginosa [2] = assay: MIC, sole activity (no second agent)
Summary of the method: as §1

Klebsiella pneumoniae [3] = assay: MIC, compound in combination with a second agent (broth microdilution); conditions: 1:1 (wt:wt) combination with Rifampicin; MIC = total drug concentration; strain CCUG-59348
Method: (§2) To evaluate the potency and spectrum of the compounds both alone and in combination with another agent, susceptibility testing was performed against up to four strains of each of the four Gram negative pathogens, Escherichia coli, Pseudomonas aeruginosa, Klebsiella pneumoniae and Acinetobacter baumannii.
(§3) Ratios of components in a combination, such as 1:1, refers to a weight to weight ratio. The minimum inhibitory concentration (MIC) refers to the total drug concentration (e.g. test compound plus second agent, such as Rifampicin).
(§4) The inoculum was prepared by making a direct suspension of isolated colonies (selected from an 18-24 hour Mueller-Hinton agar plate) adjusted to the 0.5 McFarland standard.
(§5) The assays were performed in duplicate.
(§6) In cases where the duplicate values varied by less than 2-fold, the lower of the two values is reported. If a variation of greater than 2-fold was observed, the assay was considered non-valid. Several of the compounds were subjected to multiple tests, and where this is the case, the MIC reflects the modal value obtained.
(§7) The minimum inhibitory concentration refers to the total drug concentration (e.g. test compound plus Rifampicin). The compounds are used at equal mass within the combination. The weight refers to the mass of compound as used, for example the Example Compounds are used in their TFA or sulphate salt forms.
(§8) MICs refer to the total drug concentration. Thus, where a 1:1 combination is used, this is the amount of the test compound plus the second agent. For comparison, the MIC values for the second agent alone are also given.

Pseudomonas aeruginosa [4] = assay: as above; conditions: 1:1 (wt:wt) combination with Rifampicin; MIC = total drug concentration; strain CCUG 59626
Method: as §2, §3, §4, §5, §6, §7, §8

[5] = Table 6A, no second agent, different supplier of Cation-adjusted MHB

| Compound | MIC K. pneumoniae ATCC 4352 (Klebsiella pneumoniae [1]; in the absence of Rifampicin, strain ATCC 4352) | MIC A. baumannii ATCCBAA-747 (Acinetobacter baumannii; in the absence of Rifampicin, strain ATCCBAA-747) | MIC A. baumannii NCTC 13423 (Acinetobacter baumannii; in the absence of Rifampicin, strain NCTC13423) | MIC E. coli ATCC25922 (Escherichia coli; in the absence of Rifampicin, strain ATCC25922) | MIC E. coli NCTC9001 (Escherichia coli; in the absence of Rifampicin, strain NCTC9001) | MIC P. aeruginosa ATCC 27853 (Pseudomonas aeruginosa [2]; in the absence of Rifampicin, strain ATCC27853) | MIC P. aeruginosa ATCCCRM-9027 (Pseudomonas aeruginosa [2]; in the absence of Rifampicin, strain ATCCCRM-9027) | MIC K. pneumoniae CCUG-59348 (Klebsiella pneumoniae [3]) | MIC P. aeruginosa CCUG 59626 (Pseudomonas aeruginosa [4]) | MIC K. pneumoniae ATCC 4352 (Klebsiella pneumoniae [1]; [5]) | MIC K. pneumoniae ATCC BAA-2146 (Klebsiella pneumoniae [1]; [5]) | MIC A. baumannii ATCC BAA-747 (Acinetobacter baumannii) | MIC A. baumannii NCTC 13424 (Acinetobacter baumannii) | MIC E. coli ATCC25922 (Escherichia coli; [5]) | MIC E. coli NCTC 13441 (Escherichia coli; [5]) | MIC P. aeruginosa ATCC 27853 (Pseudomonas aeruginosa [2]; [5]) | MIC P. aeruginosa CCUG 59347 (Pseudomonas aeruginosa [2]; [5]) |
| --- | --- | --- | --- | --- | --- | --- | --- | --- | --- | --- | --- | --- | --- | --- | --- | --- | --- |
| CC(C)C[C@@H]1NC(=O)[C@@H](Cc2ccccc2)NC(=O)[C@H](CCN)NC(=O)[C@@H](NC(=O)[C@H](CCN)NC(=O)[C@@H](NC(=O)CCCCN)C(C)O)CCNC(=O)[C@H](C(C)O)NC(=O)[C@H](CCN)NC(=O)[C@H](CCN)NC1=O (some centres unmarked) [Example 6, 5-Aminopentanoyl polymyxin B nonapeptide] (H-[Ava][Thr(3ξ)][Dab][Dab][Dab][dF]L[Dab][Dab][Thr(3ξ)]; lactam 4-C) | 0.5 micrograms/mL | 8 micrograms/mL | 4 micrograms/mL | 2 micrograms/mL | 2 micrograms/mL | 0.25 micrograms/mL | 0.125 micrograms/mL | 4 micrograms/mL | ≤0.06 micrograms/mL |  |  |  |  |  |  |  |  |
| L-Pro polymyxin B nonapeptide [Example A37] |  |  |  |  |  |  |  |  |  | >8 micrograms/mL | >8 micrograms/mL | >8 micrograms/mL | >8 micrograms/mL | >8 micrograms/mL | >8 micrograms/mL | 2 micrograms/mL | >8 micrograms/mL |
| Piperidine-1-ylethanoyl polymyxin B nonapeptide [Example A2] |  |  |  |  |  |  |  |  |  | 8 micrograms/mL |  | >8 micrograms/mL | >8 micrograms/mL | 4 micrograms/mL | >8 micrograms/mL | 2 micrograms/mL | 4 micrograms/mL |
| Piperidine-2-carbonyl polymyxin B nonapeptide. Isomer 1 [Example A25] |  |  |  |  |  |  |  |  |  | 8 micrograms/mL | >8 micrograms/mL | >8 micrograms/mL | 8 micrograms/mL | >8 micrograms/mL | >8 micrograms/mL | 2 micrograms/mL | 4 micrograms/mL |
| Piperidine-2-carbonyl polymyxin B nonapeptide. Isomer 2 [Example A26] |  |  |  |  |  |  |  |  |  | 0.5 micrograms/mL | 1 micrograms/mL | 2 micrograms/mL | 1 micrograms/mL | 2 micrograms/mL | 2 micrograms/mL | 1 micrograms/mL | 2 micrograms/mL |
| [2-(RS)-(2-Hydroxy-2- cyclohexyl)ethanoyl]-L-Thr- L-Dap-polymyxin B heptapeptide [Example A4] |  |  |  |  |  |  |  |  |  | 2 micrograms/mL |  | >8 micrograms/mL | >8 micrograms/mL | 1 micrograms/mL | 4 micrograms/mL | 2 micrograms/mL | 2 micrograms/mL |
| [3(R,S)-3-Amino-3- cyclohexanepropanoyl]-Gly- polymyxin B nonapeptide [Example A7] |  |  |  |  |  |  |  |  |  | >8 micrograms/mL |  | 4 micrograms/mL | 8 micrograms/mL | >8 micrograms/mL | >8 micrograms/mL | 1 micrograms/mL | >8 micrograms/mL |
| [3(R,S)-3-Amino-3- cyclohexanepropanoyl]-L- Arg- polymyxin B nonapeptide [Example A23] |  |  |  |  |  |  |  |  |  | >8 micrograms/mL | >8 micrograms/mL | 2 micrograms/mL | 4 micrograms/mL | >8 micrograms/mL | >8 micrograms/mL | 8 micrograms/mL | >8 micrograms/mL |
| [3(R,S)-3-Amino-3- cyclohexanepropanoyl]-L- Dab-L-Thr-L-Dap polymyxin B heptapeptide [Example A10] |  |  |  |  |  |  |  |  |  | 0.5 micrograms/mL |  | 2 micrograms/mL | 2 micrograms/mL | 1 micrograms/mL | 1 micrograms/mL | 0.25 micrograms/mL | 0.25 micrograms/mL |
| [3(R,S)-3-Amino-3- cyclohexanepropanoyl]-L- His- polymyxin B nonapeptide [Example A19] |  |  |  |  |  |  |  |  |  | 8 micrograms/mL | 8 micrograms/mL | 4 micrograms/mL | 4 micrograms/mL | 8 micrograms/mL | 4 micrograms/mL | 1 micrograms/mL | 2 micrograms/mL |
| [3(R,S)-3-Amino-3- cyclohexanepropanoyl]-L- Phe- polymyxin B nonapeptide isomer 1 [Example A20] |  |  |  |  |  |  |  |  |  | >8 micrograms/mL | >8 micrograms/mL | >8 micrograms/mL | >8 micrograms/mL | >8 micrograms/mL | >8 micrograms/mL | >8 micrograms/mL | >8 micrograms/mL |
| [3(R,S)-3-Amino-3- cyclohexanepropanoyl]-L- Phe- polymyxin B nonapeptide isomer 2 [Example A21] |  |  |  |  |  |  |  |  |  | >8 micrograms/mL | >8 micrograms/mL | >8 micrograms/mL | >8 micrograms/mL | >8 micrograms/mL | >8 micrograms/mL | >8 micrograms/mL | >8 micrograms/mL |
| [3(R,S)-3-Amino-3- cyclohexanepropanoyl]-L- Pro- polymyxin B nonapeptide isomer 1 [Example A8] |  |  |  |  |  |  |  |  |  | >8 micrograms/mL |  | >8 micrograms/mL | >8 micrograms/mL | >8 micrograms/mL | >8 micrograms/mL | 2 micrograms/mL | 4 micrograms/mL |
| [3(R,S)-3-Amino-3- cyclohexanepropanoyl]-L- Pro- polymyxin B nonapeptide isomer 2 [Example A9] |  |  |  |  |  |  |  |  |  | >8 micrograms/mL |  | >8 micrograms/mL | >8 micrograms/mL | >8 micrograms/mL | >8 micrograms/mL | 2 micrograms/mL | >8 micrograms/mL |
| [3(R,S)-3-Amino-3- cyclohexanepropanoyl]-L- Ser- polymyxin B nonapeptide [Example A11] |  |  |  |  |  |  |  |  |  | 8 micrograms/mL |  | 4 micrograms/mL | 4 micrograms/mL | >8 micrograms/mL | 8 micrograms/mL | 1 micrograms/mL | 2 micrograms/mL |
| [3(R,S)-3-Amino-3- cyclohexanepropanoyl]-L- Tyr- polymyxin B nonapeptide [Example A27] |  |  |  |  |  |  |  |  |  | >8 micrograms/mL | >8 micrograms/mL | 8 micrograms/mL | >8 micrograms/mL | >8 micrograms/mL | >8 micrograms/mL |  | 4 micrograms/mL |
| [3(R,S)-3-Amino-3- cyclohexanepropanoyl]-[4R- 4-hydroxy-L-Pro]-polymyxin B nonapeptide [Example A12] |  |  |  |  |  |  |  |  |  | >8 micrograms/mL |  | 8 micrograms/mL | 8 micrograms/mL | >8 micrograms/mL | >8 micrograms/mL | 2 micrograms/mL | 4 micrograms/mL |
